This is an account of results in a melting point compilation (Tetko et al.; mined from patent text by program, amines drawn as free bases though some values may be those of a salt).

Each structure is given as a SMILES string. A value given as a limit tells only on which side of the number the result lay.

Broadly, the melting point is the temperature of the solid-liquid transition. In the case of `CN(C)Cc1ccc(CSCCNC(=C[N+](=O)[O-])NCc2ccc3c(c2)OCO3)o1`, the melting point was in the range of 98 to 120 °C.
In the case of `CC(C(O)c1ccc2c(c1)CCCS2)N1CCN(C(=O)C=Cc2ccccc2Cl)CC1` (configuration not stated), the melting point was 206 to 209 °C.
Take `COc1ccc(-c2[nH]nc3c2C(=O)c2c(NC(=O)CCNc4ccncc4)cccc2-3)cc1`: the melting point is > 300 °C.
Take `COC(=O)CCCCc1cc2cc(Cl)ccc2n1S(=O)(=O)c1ccccc1`: the melting point was 95 to 98 °C.
Regarding `COc1ccc(-c2c3cccc(C(F)(F)F)c3nn2C2CCC2)c(OC)c1`, the melting point lay within 51 to 52 °C.
`COc1ccc(C(=O)NNC(=O)c2occ(-c3ccccc3)c2-c2ccccc2)cc1F` registered a melting point of 110 to 112 °C.
The figure for `Cc1cc(C(C)C)c(C=O)[nH]1` is 90 to 93 °C.
In the case of `O=c1[nH]cnc2c(Br)sc(Br)c12`, the melting point was > 250 °C.
Turning to `Oc1cc(-c2cc3n(n2)CCCC3)c(F)cc1Cl`, the melting point was in the range of 218 to 220 °C.
Turning to `COc1nc2cc(Br)c3c(c2nc1OC)CCN(C)C3`, the melting point was found to be 162 °C.
`COCCn1cc(-c2ccccc2)n(C(C)=O)c1=O` showed a melting point of 73 to 75 °C.
As for `Cc1nc2ccc(C(=O)NS(=O)(=O)c3ccccc3)nc2n1Cc1ccc(CCc2ccccc2)cc1Cl`, the melting point is 180 to 181 °C.
Regarding `O=c1cc(-c2ccccc2)c2c(O)cc(O)cc2o1`, the melting point is 179 to 182 °C.
`COc1cc(CSc2ccccn2)nc(N)n1` gave a melting point of 115 to 116 °C.
Take `Nc1ccccc1NS(=O)(=O)c1cc(C(=O)O)cc(NCc2ccco2)c1Oc1ccccc1`: the melting point fell in the range of 105 to 110 °C.
With `N#CCCN1CCCCC1=Nc1ccccc1N1CCOCC1`, the melting point stood at 148 °C.
As to `CN(C)C(=O)c1cccnc1S`, the melting point was in the range of 200 to 208 °C.
In turn, `CCc1[nH]n(C2CCCC2)c2nc(Oc3ccccc3)nc(=O)c1-2` returned a melting point of 175 to 177 °C.
As to `Cc1cc(N)c(Cl)c(C)n1`, the melting point stood at 86 °C.
`COc1ccc(C(C#N)=NOS(=O)(=O)C(C)C)cc1` registered a melting point of 72 °C.
The same measure for `CC(=O)c1cc(Cl)ccc1NS(=O)(=O)C(F)(F)F`: 36 to 38 °C.
The figure for `CNC(=O)n1nc(Oc2ncc(C(F)(F)F)cc2Cl)cc1C` is 85 to 86 °C.
`C=C(C)COc1ccc2c(C)cc(=O)oc2c1C(=O)C=Cc1cc(OC)c(OC)c(OC)c1` registered a melting point of 128 to 130 °C.
In turn, `COc1cccc(CCC(=O)O)c1C` displayed a melting point of 143 to 147 °C.
The compound `CC(C)(C)c1ccc(N2C[C@@H](COS(C)(=O)=O)CC2=O)cc1` yielded a melting point of 108 to 109 °C.
`CCCCCCC(C)(C)c1ccc(C2CCCC(=O)C2)c(O)c1` (configuration not stated): the melting point stood at 87 °C.
In turn, `CCOC(=O)c1ccccc1CCC(=O)Nc1cccc(/C=C/c2nc(C3CCC3)cs2)c1` registered a melting point of 110 to 111 °C.
`Brc1c[nH]c2ccc(Nc3ncnc4cc(-c5ccccc5)sc34)cc12` had a melting point of 201 to 203 °C.
For the compound `CC(=O)C=Cc1ccccc1O`, the melting point was in the range of 136 to 137 °C.
On to `COC(=O)C(C)(C)C(=O)Oc1ccc(C(=O)c2ccccc2)cc1`, for which the melting point lay within 121 to 122 °C.
As for `N#Cc1ccc2c(c1)C=C(C(=O)O)C(C(F)(F)F)N2` (configuration not stated), the melting point is 238 to 240 °C.
`Sc1nncn1C1CCCCC1` displayed a melting point of 162 to 165 °C.
`CC(C)(C)OC(=O)N1CC(O)C(N=[N+]=[N-])C1` (configuration not stated) returned a melting point of 34 to 36 °C.
Compound `CCOC(=O)c1ncc2[nH]c3ccc(C4CC=CCC4)cc3c2c1C` (configuration not stated) had a melting point of 200 to 201 °C.
`O=C(O)[C@H](Cc1ccc(O)cc1)NC(=O)C1(NC(=O)C2(S)CCCC2)CCCC1` registered a melting point of 90 °C.
The compound `Cc1ccc(Cc2ccc(-c3cnn4c(O)ncnc34)cc2)cc1` came in with a melting point of 285 to 292 °C.
Consider `COc1cccc2c1CC1CC(CCN3CCC(c4c[nH]c5ccccc45)CC3)CN(C)C1C2` (configuration not stated), for which the melting point is 215 to 217 °C.
Regarding `Oc1cccc(-c2ccc3cc(O)ccc3c2)c1`, the melting point was in the range of 192 to 194 °C.
Regarding `COc1cc2c(cc1OC)CCCC(C(=O)N1CCN(Cc3cc(OC)c(OC)c(OC)c3)C(C(=O)O)C1)=C2` (configuration not stated), the melting point was 142 to 144 °C.
In turn, `Cc1nnc2ncc(-c3ccccc3Cl)nn12` returned a melting point of 172 to 175 °C.
Regarding `O=C(Nc1ccc(N2CC3CC3C2)nc1)c1cc2cc(F)ccc2n1Cc1cccc(F)c1` (configuration not stated), the melting point is 193 to 195 °C.
The same measure for `CN1C(=O)CC(C)(C)c2cc(C3(C)OCCO3)ccc21`: 81 to 83 °C; for `CS(=O)(=O)Nc1cccc(SCc2ccccc2)n1`: 123 to 125 °C; for `Ic1ncnc2c1ncn2Cc1ccccc1`: 152 to 153 °C.
For `CCOC(=O)C1=C(N)NC(N)=C(C(=O)OCC)C1c1ccccc1C`, the melting point worked out at 158 °C.
`CC(=O)N1CCN(c2cc3c(c(C)c2F)c(=O)c(C(=O)O)cn3C2CC2)CC1` gave a melting point of 261 to 263 °C.
The figure for `C=CC(O)(c1ccc(Cl)cc1)c1cccnc1` (configuration not stated) is 82.5 to 84 °C; for `Cc1c(Oc2ccc(C(=O)NC(C)C)cc2)c2cc(F)ccc2n1CC(=O)O` it is 218 to 219 °C; for `CCCCn1ccc(C=O)cc1=O` it is 36 to 40 °C.
As to `CC(=O)N1CCSc2cccc(Cl)c2C1`, the melting point was in the range of 79 to 81 °C.
In the case of `CN(C)C(=O)Nc1ccc(O)cc1`, the melting point lay in the range of 178 to 179 °C.
In the case of `CCCCCCCCCCCC(=O)NNC(=O)c1ccccc1O`, the melting point is 158 °C.
In turn, `CC1(C)OC(c2ccc(S(N)(=O)=O)cc2)=C(c2cc3ccccc3o2)C1=O` returned a melting point of 143 to 145 °C.
Compound `CC(C)CCCC(C)C1CCC2C3CC=C4CC(I)CCC4(C)C3CCC12C` (configuration not stated) returned a melting point of 106 °C.
With `COc1ccc(C(=O)Nc2ccccc2)cc1NC(=S)Nc1ccc(C)cc1`, the melting point fell in the range of 156 to 158 °C.
The compound `Nc1ccc2ccc(Oc3cccnc3)nc2n1` had a melting point of 178 °C.
The same measure for `CCCCc1nc2c(N)nc3ccccc3c2n1CCOCC#Cc1ccccc1`: 133 to 140 °C.
Take `O=C(O)CCCCCCCCCCCCCCCCCCCCCI`: the melting point lay in the range of 71 to 72 °C.
The compound `N#CC(C(=O)Nc1cccc(Br)c1)C(=O)c1nn(-c2ccccc2)c2c1Cc1ccccc1-2` (configuration not stated) registered a melting point of 289 to 290 °C.
In the case of `O=C(c1ccc(CBr)cc1)c1ccc(CBr)cc1`, the melting point was 118 to 119 °C.
The same measure for `COC(=O)CS(=O)(=O)Nc1nc(-c2ncccc2C)cc2cccnc12`: 147 to 148 °C; for `CC(C)C1=C(C#N)C(c2cccc(Cl)c2Cl)c2c[nH]nc2N1` (configuration not stated): > 250 °C.
The compound `CCOC(=O)Cc1cnc(N=C2SCC3Cc4ccccc4CN23)s1` (configuration not stated) gave a melting point of 132 °C.
`Cn1cc([N+](=O)[O-])c(C(=O)NC2CCCC2)n1` yielded a melting point of 176 to 177 °C.
The figure for `O=C1NCCc2c(NCc3ccccc3)cccc21` is 142 to 144 °C.
The same measure for `CSc1cnc2cc(-c3ccccc3Cl)sc2c1O`: 270 to 273 °C; for `NC(=O)N1C(=O)C(=C(OC(=O)c2ccco2)c2cccs2)c2cc(F)c(Cl)cc21`: 215 to 216 °C.
